What was measured:
Format in all cases: physicochemical
[1] = Stability test (illumination, high temperature, high humidity; XRPD and HPLC purity); conditions: for Initial purity (day 0): day 0, before stress, HPLC; for crystal transformation (XRPD): 10 days
Experimental: Illumination stability: samples of the crystal form C and the crystal form D of the compound of the formula (I) (respectively prepared in Example 1 and Example 2) were respectively taken and placed at 25° C. under an illumination condition of 4500 Lux for 10 days, and samples were taken respectively on day 5 and day 10 at fixed time points to determine XRPD patterns of the crystal forms C and D and the content of N-(4-(1-(2,6-difluorobenzyl)-5-((dimethylamino)methyl)-3-(6-methoxy-3-pyridazinyl)-2,4-dioxo-1,2,3,4-tetrahydrothieno[2,3-d]pyrimidin-6-yl)phenyl)-N′-methoxyurea in the crystal forms C and D, which were compared with those of the samples on day 0. High temperature stability: samples of the crystal form C and the crystal form D of the compound of the formula (I) (respectively prepared in Example 1 and Example 2) were respectively taken and placed at 60° C. for 10 days, and samples were taken respectively on day 5 and day 10 at fixed time points to determine XRPD patterns of the crystal forms C and D and the content of N-(4-(1-(2,6-difluorobenzyl)-5-((dimethylamino)methyl)-3-(6-methoxy-3-pyridazinyl)-2,4-dioxo-1,2,3,4-tetrahydrothieno[2,3-d]pyrimidin-6-yl)phenyl)-N′-methoxyurea in the crystal form C and the crystal form D, which were compared with those of the samples on day 0. High humidity stability: samples of the crystal form C and the crystal form D of the compound of the formula (I) (respectively prepared in Example 1 and Example 2) were respectively taken and placed at 40° C. at 75% RH for 10 days, and samples were taken respectively on day 5 and day 10 at fixed time points to determine XRPD patterns of the crystal forms C and D and the content of N-(4-(1-(2,6-difluorobenzyl)-5-((dimethylamino)methyl)-3-(6-methoxy-3-pyridazinyl)-2,4-dioxo-1,2,3,4-tetrahydrothieno[2,3-d]pyrimidin-6-yl)phenyl)-N′-methoxyurea in the crystal form C and the crystal form D, which were compared with those of the samples on day 0. A specific stability test method can refer to the method in appendix XI C of Part II of Chinese Pharmacopoeia (2015 edition); the purity detection adopts an HPLC method, and the purity can be determined by an external standard method with reference to the method in appendix VD of Chinese Pharmacopoeia (2015 edition) by using the samples on day 0 as a reference substance. instrument: high performance liquid chromatograph (model: Thermo U3000) chromatographic column: Agilent C18 column (5 μm, 150 mm×4.6 mm) mobile phase composition and gradient elution program: [table] detection wavelength: 254.4 nm; flow rate: 1 ml/min; sample size:15 μL; column temperature: 30° C.

[2] = Saturation solubility in water (HPLC); conditions: for Saturation solubility: in water, room temperature, stirred for 12 hours, excess solid, HPLC; for solubility, in words: saturation solubility, forms C and D compared with crystal form A
From the text: Samples for test: a crystal form C and a crystal form D of a compound of a formula (I), their preparation methods being respectively shown in Example 1 and Example 2, a preparation method of the crystal form A of the compound of the formula (I) being shown in Comparative example 1.
Test method: the crystal form A, the crystal form C, and the crystal form D of the compound of the formula (I) were respectively taken, to measure their saturation solubility in water, a specific method was: a suitable amount of the samples for test were respectively taken, and put into a […] sample bottle, 3 ml of a water solution was added, the solid was excess, and the obtained solution was placed at room temperature and stirred for 12 hours, and solubility in water was measured by using an HPLC method. The operation conditions of HPLC are as follows:
instrument: high performance liquid chromatograph (model: Thermo U3000)
chromatographic column: Agilent C18 column (5 μm, 150 mm×4.6 mm)
mobile phase composition and gradient elution program: […]
Detection wavelength: 254.4 nm;
column temperature: 30° C.

[3] = Hygroscopicity test, dynamic vapor sorption (DVS); conditions: for hygroscopicity, in words: forms C and D compared with crystal form A
[4] = Stability test (illumination, high temperature, high humidity; XRPD and HPLC purity); conditions: high humidity (25° C., 92.5% RH), 10 days
[5] = 25° C., 4500 Lux (illumination), listed as crystal form D
[6] = 40° C., 75% RH (high humidity), listed as crystal form D
[7] = 60° C. (high temperature), listed as crystal form D
[8] = 25° C., 4500 Lux (illumination), listed as crystal form C
[9] = 40° C., 75% RH (high humidity), listed as crystal form C
[10] = 60° C. (high temperature), listed as crystal form C

For `CONC(=O)Nc1ccc(-c2sc3c(c2CN(C)C)c(=O)n(-c2ccc(OC)nn2)c(=O)n3Cc2c(F)cccc2F)cc1` [Crystal form D, N-(4-(1-(2,6-difluorobenzyl)-5-((dimethylamino)methyl)-3-(6-methoxy-3-pyridazinyl)-2,4-dioxo-1,2,3,4-tetrahydrothieno[2,3-d]pyrimidin-6-yl)phenyl)-N′-methoxyurea], the “Purity change on day 10” value [1, 5] was 0.50%, the “Purity on day 5” value [1, 5] was 98.1% and the “Purity on day 10” value [1, 5] was 98.57%. The “Purity change on day 10” value [1, 6] was 1.86%, the “Purity on day 5” value [1, 6] was 97.88% and the “Purity on day 10” value [1, 6] was 97.21%. The “Purity change on day 10” value [1, 7] was 2.56%, the “Purity on day 5” value [1, 7] was 96.25% and the “Purity on day 10” value [1, 7] was 96.51%. For the same compound, the “Initial purity (day 0)” value ([1]; listed as crystal form D) was 99.07%, the Saturation solubility ([2]; listed as crystal form D) was 87.21 µg/mL and the “solubility, in words” value ([2]; listed as crystal form D) was “significantly improved”. For the same compound, the “hygroscopicity, in words” value ([3]; listed as crystal form D) was “significantly decreased”.

For `CONC(=O)Nc1ccc(-c2sc3c(c2CN(C)C)c(=O)n(-c2ccc(OC)nn2)c(=O)n3Cc2c(F)cccc2F)cc1` [Crystal form A, N-(4-(1-(2,6-difluorobenzyl)-5-((dimethylamino)methyl)-3-(6-methoxy-3-pyridazinyl)-2,4-dioxo-1,2,3,4-tetrahydrothieno[2,3-d]pyrimidin-6-yl)phenyl)-N′-methoxyurea], the Saturation solubility [2] was 28.50 µg/mL, the “solubility, in words” value ([2]; listed as crystal form A) was “low solubility” and the “moisture absorption (hygroscopy gain)” value ([3]; 25° C., humidity gradually increased from 0 to 50% RH) was 0.57%. The “hygroscopicity (hygroscopy gain)” value ([3]; 25° C., humidity gradually increased from 0 to 90% RH) was 25.84% and the “hygroscopicity, in words” value ([3]; listed as crystal form A) was “high hygroscopicity”.

For `CONC(=O)Nc1ccc(-c2sc3c(c2CN(C)C)c(=O)n(-c2ccc(OC)nn2)c(=O)n3Cc2c(F)cccc2F)cc1` [Crystal form C, N-(4-(1-(2,6-difluorobenzyl)-5-((dimethylamino)methyl)-3-(6-methoxy-3-pyridazinyl)-2,4-dioxo-1,2,3,4-tetrahydrothieno[2,3-d]pyrimidin-6-yl)phenyl)-N′-methoxyurea], the “Purity change on day 10” value [1, 8] was 0.49%, the “Purity on day 5” value [1, 8] was 98.99% and the “Purity on day 10” value [1, 8] was 98.84%. The “Purity change on day 10” value [1, 9] was 3.33%, the “Purity on day 5” value [1, 9] was 96.88% and the “Purity on day 10” value [1, 9] was 96%. For the same compound, the “Purity change on day 10” value [1, 10] was 2.58%, the “Purity on day 5” value [1, 10] was 97.89% and the “Purity on day 10” value [1, 10] was 96.75%. For the same compound, the “Initial purity (day 0)” value ([1]; listed as crystal form C) was 99.33%, the “crystal transformation (XRPD)” value ([1]; high temperature (60° C.)) was “no crystal transformation” and the “crystal transformation (XRPD)” value ([1]; strong illumination (25° C., 4500 Lux)) was “no crystal transformation”. For the same compound, the “crystal transformation (XRPD)” value [4] was “no crystal transformation”, the Saturation solubility ([2]; listed as crystal form C) was 101.75 µg/mL and the “solubility, in words” value ([2]; listed as crystal form C) was “significantly improved”. The “hygroscopicity, in words” value ([3]; listed as crystal form C) was “significantly decreased”.
